# Reference: PMC9698057, “Insights into Antimalarial Activity of N-Phenyl-Substituted Cinnamanilides” (Molecules, 2022)
# Values joined by “and” are separate entries in the source; they are usually repeats but may differ in a detail not shown here. Equal values may be shown once. Read-outs that look alike come from different tables or passages of the source.
# Columns and labels:
# [1] = tested on: Plasmodium falciparum 3D7/MRA-102; assay: In vitro antiplasmodial activity; type: cell-based; conditions: for IC50: chloroquine-sensitive strain 3D7/MRA-102, 48 h incubation, n = 3, read-out: Pf IC50 ± SD; for antiplasmodial activity in words: P. falciparum 3D7/MRA-102
# [2] = Lipophilicity determination by RP-HPLC (log of capacity factor k); type: physicochemical; conditions: C18, isocratic methanol 72%/water 28%
# Experimental: Among the important parameters characterizing the physicochemical properties of the compounds, we studied the lipophilicity and electronic relations in the molecule. […] The lipophilicity was determined using RP-HPLC as the logarithm of capacity factor k. The retention times of individual compounds were determined under isocratic conditions, with methanol as an organic modifier in the mobile phase using end-capped non-polar C18 stationary RP columns. In addition, the lipophilicity expressed as log P and Clog P was calculated using two commercially available programs: ACD/Percepta ver.
# A chromatographic column Symmetry® C18 5 μm, 4.6 × 250 mm, Part No. W21751W016 (Waters Corp., Milford, MA, USA) was used. The HPLC separation process was monitored by the EZ CHROM Elite® software ver. 3.2.0 (Hitachi High Technologies America). The total flow of the column was 1.0 mL/min, injection 10 μL, column temperature 40 °C, and sample temperature 10 °C. The detection wavelength 214 nm was chosen. A KI methanolic solution was used for the dead time (tD) determination. Retention times (tR) were measured in minutes. […] The capacity factors were calculated according to the formula k = (tR − tD)/tD, where tR is the retention time of the solute and tD is the dead time obtained using an unretained analyte. Each experiment was repeated three times.
# [3] = tested on: Mycobacterium tuberculosis H37Ra/ATCC 25177; parameters: method as in PMID 30087309, PMID 32916979; conditions: M. tuberculosis H37Ra/ATCC 25177; cited from earlier work
# [4] = tested on: THP1-Blue™ NF-κB cells; conditions: read-out: cytotoxicity IC50; human monocytic leukemia cell line THP1-Blue™ NF-κB; cited from earlier work
# [5] = Plasmodium falciparum, 3D7, 48 h
compound,measurement,setting,value
"CCN(CC)CCCC(C)Nc1ccnc2cc(Cl)ccc12 (stereo not shown) [CQ, chloroquine, reference compound]",IC50,[1]; [5],0.5 ± 0.2 µM
"Cc1cccc(NC(=O)/C=C/c2ccccc2)c1 [Compound 2, (2E)-N-(3-methylphenyl)-3-phenyl-prop-2-enamide]",log k,[2],0.2729
same,IC50,[1]; [5],21.6 µM
same,IC50,[1],21.9 ± 6.3 µM
same,Mtb MIC,[3],67.4 µM
Cc1ccc(NC(=O)/C=C/c2ccccc2)cc1 [Compound 3],log k,[2],0.2640
same,IC50,[1]; [5],> 35 µM
same,Mtb MIC,[3],134 µM
O=C(/C=C/c1ccccc1)Nc1cccc(C(F)(F)F)c1 [Compound 6],log k,[2],0.4859
same,IC50,[1]; [5],> 35 µM
same,Mtb MIC,[3],27.5 µM
same,IC50,[4],11.6 ± 1.13 µM
Cc1ccc(C)c(NC(=O)/C=C/c2ccccc2)c1 [Compound 7],log k,[2],0.2691
same,IC50,[1]; [5],> 35 µM
same,Mtb MIC,[3],254 µM
O=C(/C=C/c1ccccc1)Nc1ccc(Cl)cc1Cl [Compound 8],log k,[2],0.5278
same,antiplasmodial activity in words,[1],inactive
same,IC50,[1]; [5],> 35 µM
O=C(/C=C/c1ccccc1)Nc1cc(Cl)ccc1Cl [Compound 9],log k,[2],0.5799
same,IC50,[1]; [5],> 35 µM
same,Mtb MIC,[3],876 µM
O=C(/C=C/c1ccccc1)Nc1c(Cl)cccc1Cl [Compound 10],log k,[2],0.0632
same,IC50,[1]; [5],> 35 µM
same,Mtb MIC,[3],876 µM
O=C(/C=C/c1ccccc1)Nc1ccc(Cl)c(Cl)c1 [Compound 11],log k,[2],0.6821
same,IC50,[1]; [5],> 35 µM
same,Mtb MIC,[3],27.4 µM
same,IC50,[4],6.28 ± 2.32 µM
O=C(/C=C/c1ccccc1)Nc1cc(Cl)cc(Cl)c1 [Compound 12],log k,[2],0.8155
same,IC50,[1]; [5],> 35 µM
same,Mtb MIC,[3],27.4 µM
same,IC50,[4],2.43 ± 1.06 µM
O=C(/C=C/c1ccccc1)Nc1ccc(Br)cc1Br [Compound 13],log k,[2],0.6152
same,antiplasmodial activity in words,[1],inactive
same,IC50,[1]; [5],> 35 µM
same,Mtb MIC,[3],>339 µM
O=C(/C=C/c1ccccc1)Nc1c(Br)cccc1Br [Compound 14],log k,[2],0.0992
same,IC50,[1]; [5],> 35 µM
same,Mtb MIC,[3],167 µM
"O=C(/C=C/c1ccccc1)Nc1cc(C(F)(F)F)cc(C(F)(F)F)c1 [Compound 15, (2E)-N-[3,5-bis(trifluoromethyl)phenyl]-3-phenylprop-2-enamide]",log k,[2],0.9814
same,IC50,[1]; [5],6.5 ± 3.6 µM
same,Mtb MIC,[3],22.3 µM
same,IC50,[4],2.17 ± 1.19 µM
COc1ccc([N+](=O)[O-])cc1NC(=O)/C=C/c1ccccc1 [Compound 16],log k,[2],0.1581
same,IC50,[1]; [5],> 35 µM
same,Mtb MIC,[3],>859 µM
O=C(/C=C/c1ccccc1)Nc1ccc([N+](=O)[O-])cc1C(F)(F)F [Compound 17],log k,[2],0.3794
same,IC50,[1]; [5],> 35 µM
same,Mtb MIC,[3],>381 µM
"O=C(/C=C/c1ccccc1)Nc1ccc([N+](=O)[O-])c(C(F)(F)F)c1 [Compound 18, (2E)-N-[4-nitro-3-(trifluoromethyl)phenyl]-3-phenylprop-2-enamide]",log k,[2],0.5004
same,IC50,[1]; [5],2.2 ± 1.9 µM
same,Mtb MIC,[3],>381 µM
O=C(/C=C/c1ccccc1)Nc1cc(Cl)ccc1F [Compound 19],log k,[2],0.36 and 0.3692
same,IC50,[1]; [5],16 ± 4.2 µM
same,Mtb MIC,[3],>465 µM
O=C(/C=C/c1ccccc1)Nc1cc(Br)ccc1F [Compound 20],log k,[2],0.4875
same,IC50,[1]; [5],> 35 µM
same,Mtb MIC,[3],199 µM
O=C(/C=C/c1ccccc1)Nc1ccc(Br)c(F)c1 [Compound 21],IC50,[1]; [5],10.3 ± 4.6 µM
same,Mtb MIC,[3],>414 µM
O=C(/C=C/c1ccccc1)Nc1ccc(C(F)(F)F)c(F)c1 [Compound 22],log k,[2],0.5789
same,IC50,[1]; [5],9.3 ± 5.3 µM
same,Mtb MIC,[3],>414 µM
"O=C(/C=C/c1ccccc1)Nc1cc(F)ccc1Br [Compound 23, (2E)-N-(2-bromo-5-fluorophenyl)-3-phenylprop-2-enamide]",log k,[2],0.4588
same,IC50,[1]; [5],3.8 ± 0.61 µM
same,Mtb MIC,[3],199 µM
"O=C(/C=C/c1ccccc1)Nc1ccc(Br)cc1Cl [Compound 24, (2E)-N-(4-bromo-2-chlorophenyl)-3-phenylprop-2-enamide]",log k,[2],0.6710
same,IC50,[1]; [5],0.58 ± 0.002 µM
same,Mtb MIC,[3],>766 µM
O=C(/C=C/c1ccccc1)Nc1ccc(Br)c(Cl)c1 [Compound 25],log k,[2],0.6611
same,IC50,[1]; [5],8.2 ± 4.7 µM
same,Mtb MIC,[3],>383 µM
same,IC50,[4],6.5 ± 1 µM
O=C(/C=C/c1ccccc1)Nc1ccc(Cl)cc1Br [Compound 26],log k,[2],0.5476
same,IC50,[1]; [5],> 35 µM
same,Mtb MIC,[3],>383 µM
O=C(/C=C/c1ccccc1)Nc1cc(C(F)(F)F)ccc1Cl [Compound 27],log k,[2],0.6178
same,IC50,[1]; [5],> 35 µM
same,Mtb MIC,[3],785 µM
O=C(/C=C/c1ccccc1)Nc1cc(C(F)(F)F)ccc1Br [Compound 28],log k,[2],0.5561
same,IC50,[1]; [5],> 35 µM
same,Mtb MIC,[3],>348 µM
O=C(/C=C/c1ccccc1)Nc1ccc(F)cc1C(F)(F)F [Compound 29],log k,[2],0.1607
same,IC50,[1]; [5],> 35 µM
same,Mtb MIC,[3],>414 µM
O=C(/C=C/c1ccccc1)Nc1ccc(Cl)cc1C(F)(F)F [Compound 30],log k,[2],0.4113
same,IC50,[1]; [5],> 35 µM
same,Mtb MIC,[3],>394 µM
O=C(/C=C/c1ccccc1)Nc1ccc(Br)cc1C(F)(F)F [Compound 31],log k,[2],0.4683
same,IC50,[1]; [5],> 35 µM
same,Mtb MIC,[3],>348 µM
"O=C(/C=C/c1ccccc1)Nc1c(F)cc(F)cc1F [Compound 32, (2E)-3-phenyl-N-(2,4,6-trifluorophenyl)-prop-2-enamide]",log k,[2],−0.0831
same,IC50,[1]; [5],> 35 µM
same,Mtb MIC,[3],>462 µM
O=C(/C=C/c1ccccc1)Nc1cc(F)c(F)c(F)c1 [Compound 33],log k,[2],0.4893
same,IC50,[1]; [5],4.3 ± 2.4 µM
same,Mtb MIC,[3],>462 µM
O=C(/C=C/c1ccccc1)Nc1cc(Cl)c(Cl)cc1Cl [Compound 34],log k,[2],0.8373
same,IC50,[1]; [5],> 35 µM
"O=C(/C=C/c1ccccc1)Nc1cc(Cl)c(Cl)c(Cl)c1 [Compound 35, (2E)-3-phenyl-N-(3,4,5-trichlorophenyl)prop-2-enamide]",log k,[2],0.9671
same,IC50,[1]; [5],13 ± 3.8 µM
same,Mtb MIC,[3],>395 µM
"O=C(/C=C/c1ccccc1)Nc1c(Br)cc(C(F)(F)F)cc1Br [Compound 36, (2E)-N-[2,6-dibromo-4-(trifluoromethyl)-phenyl]-3-phenylprop-2-enamide]",log k,[2],0.4321
same,IC50,[1]; [5],2 ± 1.9 µM
same,Mtb MIC,[3],>287 µM
O=C(/C=C/c1ccccc1)Nc1c(Br)cc(F)c(Cl)c1Br [Compound 37],log k,[2],0.3139
same,IC50,[1]; [5],> 35 µM
same,Mtb MIC,[3],>298 µM
"NNC(=O)c1ccncc1 [INH, isoniazid, reference compound]",Mtb MIC,[3],36.6 µM
